According to patent US20120004257A1, “NOVEL COMPOUNDS” (priority 2010, published 2012):
Structures can show the parent of a compound that is named as a salt.

Experiments:
Format in all cases: biochemical
[1] = system: dopamine (DA) reuptake in synaptosomes; experiment: DA reuptake inhibition in synaptosomes; settings: 3H-DA, read-out: DA-uptake IC50
Source text: (§1) Compounds of the invention may be tested for their ability to inhibit reuptake of the monoamines dopamine, noradrenaline and serotonin in synaptosomes e.g. such as described in WO 97/30997 (NeuroSearch A/S) or WO 97/16451 (NeuroSearch A/S). The compounds of the invention may also be tested for their antinociceptive activity e.g. such as described below: Background: formalin injection into the rat hindpaw initiates […] spontaneous nociceptive behaviours consisting of either flinching, and licking and/or biting of the injected paw. The first phase occurs as a direct chemical stimulation of nociceptors, and is followed by a period of relative quiescence called interphase that can be attributed to activation of noxious inhibitory control pathways; primarily 5-HT and NA pathways originating from brainstem nuclei. The second phase occurs as a result of increased primary afferent afferent drive with subsequent sensitization of nociceptive spinal neurones (Coderre et al., 1993). Animals: adult male Sprague-Dawley rats (Harlan Scandinavia, Alleroed, Denmark). The experiments was performed according to the Ethical Guidelines of the International Association for the Study of Pain (Zimmermann, 1983) and the Danish Committee for Experiments on Animals. […] MED and ED50 values were calculated where possible. Data (mean+/−SEM) were analyzed using one way ANOVA followed by Bonferonni's t test. […]

[2] = system: noradrenaline (NA) reuptake in synaptosomes; experiment: NA reuptake inhibition in synaptosomes; settings: 3H-NA, read-out: NA-uptake IC50
Source text: as §1

[3] = system: serotonine (5-HT) reuptake in synaptosomes; experiment: 5-HT reuptake inhibition in synaptosomes; settings: 3H-5-HT, read-out: 5-HT-uptake IC50
Source text: as §1

CCc1cc2ccc(O[C@@H]3C[C@H]4CC[C@@H](C3)N4)cc2oc1=O [Compound 1.1, exo-7-[(8-Aza-bicyclo[3.2.1]oct-3-yl)oxy]-3-ethyl-chromen-2-one hydrochloride]
IC50 [1]: 500 nM | IC50 [2]: 47 nM | IC50 [3]: 7.8 nM
